Measurements as given in patent US8969332B2, “Aryloxy dihalopropenyl ether compounds and uses thereof” (Sinochem Corporation, priority 2011, dated 2015).

How the values were obtained:
[1] = test system: diamond back moth; experiment: Insecticidal activity against diamond back moth in greenhouse (airbrush spraying of cabbage leaf discs); type: in vivo; conditions: Plutella xylostella, foliar, 72 h, parallel determination, read-out: Mortality of diamond back moth (%)
Protocol: (§1) Compounds were dissolved in mixed solvent (acetone:methanol=1:1), and diluted to required concentration with water containing 0.1% of tweed 80.
(§2) The method of spraying by airbrush: The cabbage leaves were made into plates of 2 cm diameter by use of punch. A test solution (0.5 ml) was sprayed by airbrush at the pressure of 0.7 kg/cm^2 to both sides of every plate. 10 Second instar larvae were put into the petri-dishes after the leaf disc air-dried and 3 replicates were set for each treatment. Then the insects were maintained in observation room (25° C., 60˜70% R.H.), Scores were conducted and mortalities were calculated after 72 h.

[2] = test system: armyworm; experiment: Insecticidal activity against armyworm in greenhouse (airbrush spraying of corn leaf discs); type: in vivo; conditions: Mythimna separata, foliar, 72 h, parallel determination
Protocol: as §1
as §2, with “corn” for “cabbage”, “Petri-dishes” for “petri-dishes”, “thr” for “for”, “R.H.).” for “R.H.),”

[3] = test system: beet armyworm; experiment: Insecticidal activity against beet armyworm (24 well-plate artificial diet emulsion method); type: in vivo; conditions: Spodoptera exigua, 72 h, read-out: Mortality of beet armyworm (%)
Protocol: as §1
24 well-plate artificial diet emulsion method: artificial food was added to each well of the 24 well-plate, after the artificial food was cooled, the prepared solution were added into the 24 well-plate according to the experimental design by order of chemical concentrations from low to high, by gently shaking the even emulsion film can be formed on the surface of the diet. 24 neat and healthy larvae were put into the 24 well-plate (one larvae each well) after the film was air-dried and 3 replicates were set for each treatment. Then the insects were maintained in observation room (25° C., 60˜70% R.H.). Scores were conducted and mortalities were calculated after 72 h.

[4] = test system: housefly; experiment: Insecticidal activity against housefly (diet incorporation test); type: in vivo; conditions: Musca domestica, 72 h, 3rd instar larvae, read-out: Mortality of housefly (%)
Protocol: Diet Incorporation Tests: the test compound was dissolved with 90% acetone to obtain the mother liquor after weigh accurately with an electronic balance. The required concentration solution was got by diluting to the mother liquor with a certain concentration milk powder solution according to the designed doses in the experiment. Then, the diluted concentration solution was evenly put into the petri dishes with diameter of 6 cm inside which filter paper was placed by using a transferring-liquid gun ([…], solution each petri dish). Finally the 3rd instars of larvae were put into petri dishes with 10 each petri dish, and 3 replicates were set for each treatment. Then the insects were maintained in observation room (25° C., 60˜70% R.H.). Scores were conducted and mortalities were calculated after 72 h.

[5] = test system: beet armyworm; experiment: Field trial against beet armyworm on cabbage; type: in vivo, Laphygma exigua
Protocol: The trial was carried out in rain shelter area of experimental field of Wuhan vegetable research institute, the test crop is cabbage (variety: Jingfeng NO. 1). The dosage of the invention compound 1 (Example 11, 10% EC, same as below) are 75, 105, 150 g a.i./hm^2. and the comparative agent pyridalyl (10% EC, commercially available, same as below) is 105 g a.i./hm^2. The agent was applied on 9 Oct. 2011. The application tool is Linong 16HD-400 type backpack spray. Evenly spraying to whole cabbage which is in rosette stage was conducted. Beet armyworm is mainly larvae. The plot area is 25 m^2 and 4 replicates and randomized block arrangement were set. The amount of spray liquid is 750 L/hm^2. It was sunny and there was no wind, with the highest temperature of 28° C. and the lowest of 15° C. on the day of the application. Chosen 10 plants from each plot and scored the larvae at different instars at fixing time. The base number was investigated before treatment. The number of living larvae was counted after 1 day, 3 days, 7 days and 14 days respectively after application and control efficacy was calculated.
(§3) Calculation Method: Decrease rate of insects (%)=(the number of insects before application−the number of insects after application) the number of insects before application×100 Control efficacy (%)=(decrease rate of insects in treated area decrease rate of insects in blank comparative area)/(100−decrease rate of insects in blank comparative area)×100

[6] = test system: cabbage butterfly (Pierisrapae Linne); experiment: Field trial against cabbage butterfly; type: in vivo
Protocol: as §3
The trial was carried out in a farmer's vegetable field in Xiangcheng District Suzhou City. The variety of the cabbage is Xinxia 50. The dosage of the compound 1 are 75, 105, 150 g a.i./hm^2 and the comparative agent pyridalyl is 105 g a.i./hm^2. The agent was applied on 26 May 2011. The application tool is Singaporean Linong HD-400 type backpack spray. Evenly spraying to whole cabbage which is at vegetative growth phase was conducted, Cabbage butterfly is at a peak time of 1-3 instars of larvae. The plot area is 15 m^2, 4 replicates and randomized block arrangement were set. The amount of spray liquid is 750 L/hm^2. It was from sunny to cloudy with the highest temperature of 22.6° C., and the lowest of 17.8° C. on the day of the application of the spray. Chosen 10 plants from each plot and scored the larvae at different instars at fixing time. The base number was investigated before treatment. The number of living larvae was counted after 1 day, 4 days, 7 days and 12 days respectively after application and control efficacy was calculated.
Calculation method: the same as Example 13.

[7] = 75 g a.i./hm^2, 10% EC, 1 day after treatment
[8] = 105 g a.i./hm^2, 10% EC, 1 day after treatment
[9] = 150 g a.i./hm^2, 10% EC, 1 day after treatment

Compound: FC(F)(F)c1ccc(Oc2ccc(OCCCOc3c(Cl)cc(OCC=C(Cl)Cl)cc3Cl)cc2)nc1 [Compound 1]
- mortality at 6.25 µg/mL ([1]; 6.25 mg/L): 100%
- mortality at 25 µg/mL ([1]; 25 mg/L): 100%
- mortality at 50 µg/mL ([1]; 50 mg/L): 100%
- mortality at 10 µg/mL ([2]; 10 mg/L): 100%
- mortality at 100 µg/mL ([2]; 100 mg/L): 100%
- mortality at 2.5 µg/mL ([3]; 2.5 mg/L): 47.8%
- mortality at 10 µg/mL ([3]; 10 mg/L): 100%
- mortality at 10 µg/mL ([4]; 10 mg/L): 66.7%
- mortality at 20 µg/mL ([4]; 20 mg/L): 100%
- Control efficiency (%) [5, 7]: 63.18%
- Control efficiency (%) ([5]; 75 g a.i./hm^2, 10% EC, 3 days after treatment): 86.14%
- Control efficiency (%) ([5]; 75 g a.i./hm^2, 10% EC, 7 days after treatment): 80.51%
- Control efficiency (%) ([5]; 75 g a.i./hm^2, 10% EC, 14 days after treatment): 73.51%
- Control efficiency (%) [5, 8]: 69.20%
- Control efficiency (%) ([5]; 105 g a.i./hm^2, 10% EC, 3 days after treatment): 92.30%
- Control efficiency (%) ([5]; 105 g a.i./hm^2, 10% EC, 7 days after treatment): 86.19%
- Control efficiency (%) ([5]; 105 g a.i./hm^2, 10% EC, 14 days after treatment): 83.69%
- Control efficiency (%) [5, 9]: 71.17%
- Control efficiency (%) ([5]; 150 g a.i./hm^2, 10% EC, 3 days after treatment): 94.09%
- Control efficiency (%) ([5]; 150 g a.i./hm^2, 10% EC, 7 days after treatment): 90.45%
- Control efficiency (%) ([5]; 150 g a.i./hm^2, 10% EC, 14 days after treatment): 88.42%
- Control efficiency (%) [6, 7]: 40.4%
- Control efficiency (%) ([6]; 75 g a.i./hm^2, 10% EC, 4 day after treatment): 84.1%
- Control efficiency (%) ([6]; 75 g a.i./hm^2, 10% EC, 7 day after treatment): 86.7%
- Control efficiency (%) ([6]; 75 g a.i./hm^2, 10% EC, 12 days after treatment): 81.2%
- Control efficiency (%) [6, 8]: 44.0%
- Control efficiency (%) ([6]; 105 g a.i./hm^2, 10% EC, 4 day after treatment): 87.9%
- Control efficiency (%) ([6]; 105 g a.i./hm^2, 10% EC, 7 day after treatment): 92.6%
- Control efficiency (%) ([6]; 105 g a.i./hm^2, 10% EC, 12 days after treatment): 85.0%
- Control efficiency (%) [6, 9]: 45.2%
- Control efficiency (%) ([6]; 150 g a.i./hm^2, 10% EC, 4 day after treatment): 89.6%
- Control efficiency (%) ([6]; 150 g a.i./hm^2, 10% EC, 7 day after treatment): 92.8%
- Control efficiency (%) ([6]; 150 g a.i./hm^2, 10% EC, 12 days after treatment): 85.4%
